Results taken from ChEMBL document CHEMBL5291721, “A preclinical secondary pharmacology resource illuminates target-adverse drug reaction associations of marketed drugs” (Nat Commun, 2023).

Legend:
[1] = molecular target: Sodium-dependent dopamine transporter (Homo sapiens, UniProt Q01959)
[2] = molecular target: 5-hydroxytryptamine receptor 2B (Homo sapiens, UniProt P41595); type: functional, cell-based
[3] = molecular target: T1, Alpha-2B adrenergic receptor (Homo sapiens, UniProt P18089)
T1 sequence (P18089 whole entry): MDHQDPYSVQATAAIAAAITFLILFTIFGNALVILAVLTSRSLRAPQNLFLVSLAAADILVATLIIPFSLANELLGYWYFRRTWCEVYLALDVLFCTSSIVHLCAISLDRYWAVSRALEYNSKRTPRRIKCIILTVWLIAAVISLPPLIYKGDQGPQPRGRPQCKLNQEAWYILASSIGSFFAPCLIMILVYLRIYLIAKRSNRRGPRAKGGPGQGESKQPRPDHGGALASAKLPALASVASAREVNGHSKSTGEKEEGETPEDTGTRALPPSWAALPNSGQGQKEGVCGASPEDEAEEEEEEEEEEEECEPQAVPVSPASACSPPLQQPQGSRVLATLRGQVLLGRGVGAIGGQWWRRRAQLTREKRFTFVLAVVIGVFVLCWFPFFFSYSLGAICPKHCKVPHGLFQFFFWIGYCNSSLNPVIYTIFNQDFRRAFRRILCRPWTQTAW

Progesterone receptor = molecular target: T2, Progesterone receptor (Homo sapiens, UniProt P06401)
T2 sequence (P06401 whole entry): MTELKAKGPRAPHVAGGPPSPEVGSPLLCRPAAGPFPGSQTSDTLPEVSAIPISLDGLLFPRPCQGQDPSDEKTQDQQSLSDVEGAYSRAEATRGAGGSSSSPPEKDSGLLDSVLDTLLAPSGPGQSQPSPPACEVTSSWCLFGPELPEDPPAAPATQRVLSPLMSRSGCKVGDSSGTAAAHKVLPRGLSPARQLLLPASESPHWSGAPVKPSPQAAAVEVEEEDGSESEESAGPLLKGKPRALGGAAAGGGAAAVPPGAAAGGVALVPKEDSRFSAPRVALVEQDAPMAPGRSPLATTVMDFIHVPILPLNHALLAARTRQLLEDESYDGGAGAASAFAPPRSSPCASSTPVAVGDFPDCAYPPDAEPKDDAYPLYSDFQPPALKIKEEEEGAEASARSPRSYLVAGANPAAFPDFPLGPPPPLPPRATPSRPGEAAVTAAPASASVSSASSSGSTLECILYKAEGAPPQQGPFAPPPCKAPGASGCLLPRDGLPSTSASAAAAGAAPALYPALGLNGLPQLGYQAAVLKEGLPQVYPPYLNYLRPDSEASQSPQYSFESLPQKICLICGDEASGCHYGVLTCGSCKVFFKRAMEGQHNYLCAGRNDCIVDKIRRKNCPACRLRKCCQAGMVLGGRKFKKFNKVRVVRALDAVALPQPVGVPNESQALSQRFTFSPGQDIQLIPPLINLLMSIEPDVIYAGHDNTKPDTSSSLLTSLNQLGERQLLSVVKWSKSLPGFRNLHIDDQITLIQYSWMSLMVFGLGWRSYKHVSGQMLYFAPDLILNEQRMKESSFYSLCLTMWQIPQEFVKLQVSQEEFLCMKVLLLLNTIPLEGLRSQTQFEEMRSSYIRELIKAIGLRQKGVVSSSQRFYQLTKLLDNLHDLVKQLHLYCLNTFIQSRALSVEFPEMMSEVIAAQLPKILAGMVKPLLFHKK

[4] = molecular target: T3, Muscarinic acetylcholine receptor M1 (Homo sapiens, UniProt P11229); type: functional, cell-based
T3 sequence (P11229 whole entry): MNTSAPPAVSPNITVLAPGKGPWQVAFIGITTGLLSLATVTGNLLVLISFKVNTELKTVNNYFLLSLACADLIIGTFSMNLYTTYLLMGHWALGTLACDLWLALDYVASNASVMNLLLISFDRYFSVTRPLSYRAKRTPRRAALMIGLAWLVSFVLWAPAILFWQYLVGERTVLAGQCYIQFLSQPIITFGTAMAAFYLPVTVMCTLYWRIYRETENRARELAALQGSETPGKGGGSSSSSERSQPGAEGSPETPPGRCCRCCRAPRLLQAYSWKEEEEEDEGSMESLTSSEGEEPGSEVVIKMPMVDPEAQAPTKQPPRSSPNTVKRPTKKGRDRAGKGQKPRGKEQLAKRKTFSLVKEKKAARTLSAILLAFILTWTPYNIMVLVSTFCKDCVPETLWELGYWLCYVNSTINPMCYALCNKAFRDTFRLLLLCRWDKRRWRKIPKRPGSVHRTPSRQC

Estrogen receptor = molecular target: T4, Estrogen receptor (Homo sapiens, UniProt P03372)
T4 sequence (P03372 whole entry): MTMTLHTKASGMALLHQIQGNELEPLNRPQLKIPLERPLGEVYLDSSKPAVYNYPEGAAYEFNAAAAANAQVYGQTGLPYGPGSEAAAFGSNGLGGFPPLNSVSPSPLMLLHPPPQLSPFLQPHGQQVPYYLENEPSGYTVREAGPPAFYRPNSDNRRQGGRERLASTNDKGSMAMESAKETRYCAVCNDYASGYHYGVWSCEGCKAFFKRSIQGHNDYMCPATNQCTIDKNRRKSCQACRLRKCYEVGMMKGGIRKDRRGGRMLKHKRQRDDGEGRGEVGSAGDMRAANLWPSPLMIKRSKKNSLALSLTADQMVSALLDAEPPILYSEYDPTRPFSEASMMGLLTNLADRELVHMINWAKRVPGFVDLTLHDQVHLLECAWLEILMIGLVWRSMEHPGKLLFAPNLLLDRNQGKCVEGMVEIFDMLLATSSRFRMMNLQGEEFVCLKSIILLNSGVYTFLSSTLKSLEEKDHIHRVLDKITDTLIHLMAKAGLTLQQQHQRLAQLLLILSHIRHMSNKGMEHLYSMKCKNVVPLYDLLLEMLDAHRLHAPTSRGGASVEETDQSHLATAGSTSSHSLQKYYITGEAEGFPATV

Mu-type opioid receptor = Mu-type opioid receptor (Homo sapiens, UniProt P35372)
[5] = molecular target: T5, Gamma-aminobutyric acid receptor subunit alpha-1 (Rattus norvegicus, UniProt P62813)
D(1A) dopamine receptor = D(1A) dopamine receptor (Homo sapiens, UniProt P21728); type: functional, cell-based
[6] = molecular target: Beta-1 adrenergic receptor (Homo sapiens, UniProt P08588); type: functional
[7] = molecular target: T5, Gamma-aminobutyric acid receptor subunit alpha-1; type: functional
[8] = molecular target: Kappa-type opioid receptor (Homo sapiens, UniProt P41145)
Note: assay procedure not described here.

Chain of Sodium-dependent dopamine transporter (Q01959 whole entry): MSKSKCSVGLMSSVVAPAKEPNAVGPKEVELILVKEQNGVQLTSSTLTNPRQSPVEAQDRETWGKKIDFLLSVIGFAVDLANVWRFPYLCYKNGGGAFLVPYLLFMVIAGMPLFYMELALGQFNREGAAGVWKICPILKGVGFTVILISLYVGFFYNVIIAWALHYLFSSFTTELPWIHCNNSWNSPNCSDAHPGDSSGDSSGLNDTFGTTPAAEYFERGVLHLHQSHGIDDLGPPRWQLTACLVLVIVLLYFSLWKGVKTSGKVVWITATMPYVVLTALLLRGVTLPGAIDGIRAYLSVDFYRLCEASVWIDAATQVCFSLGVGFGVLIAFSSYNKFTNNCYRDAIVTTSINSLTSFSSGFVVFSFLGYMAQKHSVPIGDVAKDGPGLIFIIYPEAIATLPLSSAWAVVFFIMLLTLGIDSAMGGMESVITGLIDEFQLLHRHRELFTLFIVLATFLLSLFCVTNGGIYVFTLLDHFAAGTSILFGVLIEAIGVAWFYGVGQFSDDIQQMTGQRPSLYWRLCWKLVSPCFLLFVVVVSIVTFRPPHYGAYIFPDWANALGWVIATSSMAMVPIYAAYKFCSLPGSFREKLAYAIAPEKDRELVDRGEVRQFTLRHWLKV
T5 sequence (P62813 whole entry): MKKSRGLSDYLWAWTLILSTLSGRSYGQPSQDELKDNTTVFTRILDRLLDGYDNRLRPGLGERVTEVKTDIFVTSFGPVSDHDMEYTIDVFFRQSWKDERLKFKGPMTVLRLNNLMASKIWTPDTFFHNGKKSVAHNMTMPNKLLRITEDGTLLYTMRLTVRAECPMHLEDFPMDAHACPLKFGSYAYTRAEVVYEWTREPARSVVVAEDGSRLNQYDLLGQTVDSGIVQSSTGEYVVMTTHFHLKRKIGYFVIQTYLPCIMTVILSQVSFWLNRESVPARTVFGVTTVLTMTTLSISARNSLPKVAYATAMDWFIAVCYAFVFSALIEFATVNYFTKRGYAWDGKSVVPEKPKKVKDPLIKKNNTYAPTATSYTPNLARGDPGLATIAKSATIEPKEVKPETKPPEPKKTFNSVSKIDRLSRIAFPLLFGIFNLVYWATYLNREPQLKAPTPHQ
Chain of 5-hydroxytryptamine receptor 2B (P41595 whole entry): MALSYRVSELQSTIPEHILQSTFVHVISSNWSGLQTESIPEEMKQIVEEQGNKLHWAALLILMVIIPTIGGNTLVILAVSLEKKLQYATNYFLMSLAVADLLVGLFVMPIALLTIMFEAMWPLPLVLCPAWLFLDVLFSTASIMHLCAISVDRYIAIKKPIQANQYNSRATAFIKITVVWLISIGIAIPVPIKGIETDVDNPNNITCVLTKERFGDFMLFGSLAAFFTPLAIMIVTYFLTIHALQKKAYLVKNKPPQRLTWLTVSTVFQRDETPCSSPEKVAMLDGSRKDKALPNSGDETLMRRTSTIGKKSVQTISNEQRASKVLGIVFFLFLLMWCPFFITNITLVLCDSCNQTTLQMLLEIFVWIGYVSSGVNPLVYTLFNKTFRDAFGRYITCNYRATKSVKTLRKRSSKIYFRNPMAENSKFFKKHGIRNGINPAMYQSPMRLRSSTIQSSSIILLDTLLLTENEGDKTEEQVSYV
Chain of Beta-1 adrenergic receptor (P08588 whole entry): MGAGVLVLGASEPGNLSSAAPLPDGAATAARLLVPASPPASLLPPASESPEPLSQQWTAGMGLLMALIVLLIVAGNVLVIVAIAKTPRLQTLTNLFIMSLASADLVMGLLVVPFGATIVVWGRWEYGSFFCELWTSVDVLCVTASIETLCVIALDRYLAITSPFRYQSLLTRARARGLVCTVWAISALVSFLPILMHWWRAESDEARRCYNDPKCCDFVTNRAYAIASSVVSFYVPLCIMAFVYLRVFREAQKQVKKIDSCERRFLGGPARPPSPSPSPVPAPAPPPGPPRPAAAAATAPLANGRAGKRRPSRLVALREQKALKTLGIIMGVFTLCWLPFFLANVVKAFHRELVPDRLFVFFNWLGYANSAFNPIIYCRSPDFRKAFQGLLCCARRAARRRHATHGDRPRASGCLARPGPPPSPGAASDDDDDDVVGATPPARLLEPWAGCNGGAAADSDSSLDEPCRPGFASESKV
Chain of D(1A) dopamine receptor (P21728 whole entry): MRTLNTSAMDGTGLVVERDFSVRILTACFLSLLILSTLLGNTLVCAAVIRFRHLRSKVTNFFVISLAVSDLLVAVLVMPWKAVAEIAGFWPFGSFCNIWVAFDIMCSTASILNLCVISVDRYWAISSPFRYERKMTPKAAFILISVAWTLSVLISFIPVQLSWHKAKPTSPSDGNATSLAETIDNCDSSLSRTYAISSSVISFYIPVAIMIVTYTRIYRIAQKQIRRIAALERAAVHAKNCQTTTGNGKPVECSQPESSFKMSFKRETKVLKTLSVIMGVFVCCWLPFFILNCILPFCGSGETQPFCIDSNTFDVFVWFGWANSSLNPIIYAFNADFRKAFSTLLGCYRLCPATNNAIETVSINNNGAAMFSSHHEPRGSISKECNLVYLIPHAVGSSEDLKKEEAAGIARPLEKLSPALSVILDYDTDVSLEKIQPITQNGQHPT
Chain of Mu-type opioid receptor (P35372 whole entry): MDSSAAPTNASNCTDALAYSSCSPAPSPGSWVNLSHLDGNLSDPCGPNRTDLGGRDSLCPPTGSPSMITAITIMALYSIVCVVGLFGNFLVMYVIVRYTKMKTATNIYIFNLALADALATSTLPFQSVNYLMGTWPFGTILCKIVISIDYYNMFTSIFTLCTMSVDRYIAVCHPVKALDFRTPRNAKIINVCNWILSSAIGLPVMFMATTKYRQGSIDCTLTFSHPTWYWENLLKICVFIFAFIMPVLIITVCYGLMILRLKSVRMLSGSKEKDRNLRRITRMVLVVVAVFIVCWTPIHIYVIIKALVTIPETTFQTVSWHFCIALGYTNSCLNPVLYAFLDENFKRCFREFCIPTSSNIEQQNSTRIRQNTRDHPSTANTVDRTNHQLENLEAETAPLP
Chain of Kappa-type opioid receptor (P41145 whole entry): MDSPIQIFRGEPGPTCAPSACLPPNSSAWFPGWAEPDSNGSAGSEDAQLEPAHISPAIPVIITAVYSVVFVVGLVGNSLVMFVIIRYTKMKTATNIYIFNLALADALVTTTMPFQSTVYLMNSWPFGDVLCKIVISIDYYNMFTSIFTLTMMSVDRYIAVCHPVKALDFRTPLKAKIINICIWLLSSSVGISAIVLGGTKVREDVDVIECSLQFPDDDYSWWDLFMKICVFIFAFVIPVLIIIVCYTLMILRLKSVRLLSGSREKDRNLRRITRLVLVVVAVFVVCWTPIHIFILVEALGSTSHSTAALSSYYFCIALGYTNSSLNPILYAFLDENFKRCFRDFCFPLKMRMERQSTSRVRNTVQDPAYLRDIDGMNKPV

| Compound | AC50 [1] | AC50 [2] | AC50 [3] | AC50 (Progesterone receptor) | AC50 [4] | AC50 (Estrogen receptor) | AC50 (Mu-type opioid receptor) | AC50 [5] | AC50 (D(1A) dopamine receptor) | AC50 [6] | AC50 [7] | AC50 [8] |
| --- | --- | --- | --- | --- | --- | --- | --- | --- | --- | --- | --- | --- |
| CC[C@@H]([C@H](C)O)n1ncn(-c2ccc(N3CCN(c4ccc(OC[C@@H]5CO[C@@](Cn6cncn6)(c6ccc(F)cc6F)C5)cc4)CC3)cc2)c1=O [POSACONAZOLE] | > 30 µM | > 30 µM | > 30 µM | > 30 µM | > 30 µM | – | – | – | – | – | – | – |
| CCOC(=O)N1CSC[C@H]1C(=O)O [TELMESTEINE] | > 30 µM | > 30 µM | – | > 30 µM | > 30 µM | > 30 µM | – | – | – | – | – | – |
| Cc1ncc(COP(=O)(O)O)c(C=O)c1O [PYRIDOXAL PHOSPHATE ANHYDROUS] | > 30 µM | > 30 µM | – | > 30 µM | > 30 µM | 10.3 µM | – | – | – | – | – | – |
| CCC(=O)O[C@]1(C(=O)CCl)[C@@H](C)C[C@H]2[C@@H]3C[C@H](F)C4=CC(=O)C=C[C@]4(C)[C@@]3(F)[C@@H](O)C[C@@]21C [HALOBETASOL PROPIONATE] | > 30 µM | > 30 µM | – | 0.003 µM | > 30 µM | – | – | – | – | – | – | – |
| CC(C)N(CCNC(=O)CN1CCCC1=O)C(C)C | > 30 µM | > 30 µM | – | > 30 µM | > 30 µM | > 30 µM | – | – | – | – | – | – |
| CN(C)CCOC(c1ccccc1)c1ccc(Br)cc1 (stereo unspecified) [BROMODIPHENHYDRAMINE] | 0.757 µM | > 30 µM | – | > 30 µM | > 30 µM | > 30 µM | – | – | – | – | – | – |
| CC(N)Cc1ccc(O)cc1 (stereo unspecified) [HYDROXYAMPHETAMINE] | > 30 µM | > 30 µM | – | > 30 µM | > 30 µM | > 30 µM | – | – | – | – | – | – |
| NCC(CC(=O)O)c1ccccc1 (stereo unspecified) [PHENIBUT] | > 30 µM | > 30 µM | – | > 30 µM | > 30 µM | > 30 µM | – | – | – | – | – | – |
| CCC(=O)O[C@]1(C(=O)SCF)[C@H](C)C[C@H]2[C@@H]3C[C@H](F)C4=CC(=O)C=C[C@]4(C)[C@@]3(F)[C@@H](O)C[C@@]21C [FLUTICASONE PROPIONATE] | > 30 µM | > 30 µM | > 30 µM | – | > 30 µM | – | > 30 µM | > 30 µM | > 30 µM | > 30 µM | > 30 µM | > 30 µM |
| CC1=CCC(C(C)(C)O)CC1O (stereo unspecified) [SOBREROL] | > 30 µM | > 30 µM | – | > 30 µM | > 30 µM | > 30 µM | – | – | – | – | – | – |
| CCCc1nc(C(C)(C)O)c(C(=O)O)n1Cc1ccc(-c2ccccc2-c2nnn[nH]2)cc1 [OLMESARTAN] | > 30 µM | > 30 µM | – | > 30 µM | > 30 µM | > 30 µM | – | – | – | – | – | – |
| CCN(CCCc1ccccc1)CCCc1ccccc1 [ALVERINE] | 0.481 µM | > 30 µM | – | > 30 µM | > 30 µM | > 30 µM | – | – | – | – | – | – |
| CCN(CC)C(=S)S [DITIOCARB] | > 30 µM | > 30 µM | – | > 30 µM | > 30 µM | > 30 µM | – | – | – | – | – | – |
| Cc1cc(N)c2ccccc2[n+]1CCCCCCCCCC[n+]1c(C)cc(N)c2ccccc21 | 0.89 µM | – | – | 16 µM | > 30 µM | 20.8 µM | – | – | – | – | – | – |
| C=CCSCC1Nc2cc(Cl)c(S(N)(=O)=O)cc2S(=O)(=O)N1 (stereo unspecified) [ALTHIAZIDE] | > 30 µM | > 30 µM | – | > 30 µM | > 30 µM | – | – | – | – | – | – | – |
| COc1cc2c(cc1OC)CC(=O)N(CCCN(C)C[C@H]1Cc3cc(OC)c(OC)cc31)CC2 [IVABRADINE] | > 30 µM | > 30 µM | – | > 30 µM | > 30 µM | > 30 µM | – | – | – | – | – | – |
| C[C@H](Cc1cc2c(c(C(N)=O)c1)N(CCCO)CC2)NCCOc1ccccc1OCC(F)(F)F [SILODOSIN] | 18.6 µM | > 30 µM | – | > 30 µM | > 30 µM | > 30 µM | – | – | – | – | – | – |
| COc1cc(N2CCC(N3CCN(C)CC3)CC2)ccc1Nc1ncc(Cl)c(Nc2ccccc2P(C)(C)=O)n1 [BRIGATINIB] | > 30 µM | > 30 µM | – | > 30 µM | > 30 µM | > 30 µM | – | – | – | – | – | – |
| Cc1cc(NC(=O)C2=C(O)c3ccccc3S(=O)(=O)N2C)no1 [ISOXICAM] | > 30 µM | > 30 µM | – | > 30 µM | > 30 µM | – | – | – | – | – | – | – |
| c1ccc2c(c1)CCc1ccccc1N2C1CN2CCC1CC2 (stereo unspecified) [QUINUPRAMINE] | 2.62 µM | > 30 µM | – | > 30 µM | > 30 µM | > 30 µM | – | – | – | – | – | – |
| CN1C(=O)/C(=N\NC(N)=S)c2ccccc21 [METHISAZONE] | > 30 µM | > 30 µM | – | > 30 µM | 26.4 µM | > 30 µM | – | – | – | – | – | – |
| NC(=O)OCC(O)COc1ccc(Cl)cc1 (stereo unspecified) [CHLORPHENESIN CARBAMATE] | > 30 µM | > 30 µM | – | > 30 µM | > 30 µM | > 30 µM | – | – | – | – | – | – |
| CCOC(=O)[C@H](CCc1ccccc1)N[C@@H](C)C(=O)N(CC(=O)O)C1Cc2ccccc2C1 | > 30 µM | > 30 µM | – | > 30 µM | > 30 µM | > 30 µM | – | – | – | – | – | – |
| CN1CCN(C2=Nc3ccccc3Oc3ccc(Cl)cc32)CC1 [LOXAPINE] | 23.3 µM | – | – | > 30 µM | > 30 µM | > 30 µM | 13 µM | > 10 µM | > 10 µM | > 10 µM | > 10 µM | 8.24 µM |
